According to paper PMC6911621 (Cancer research, 2019):
Each block holds one molecule with its values, some of them ahead of it. Ends that are not written are not given here. Peptide text beside a SMILES is read from it. * marks the point of attachment. Biotin = O=C1N[C@H]2[C@H](CS[C@H]2CCCCC(=O)*)N1; Cbz = O=C(OCc1ccccc1)*; Ahx = NCCCCCC(=O)O; CH2F = FC*

Tests used:
tumor cells [1] = assay: HMGB1 release; type: cell-based; settings: Supplementary Fig. S4F and G
tumor cells [2] = assay: Tumor cell death with pan-caspase inhibitor; type: cell-based; settings: plus cell-permeable MFF peptide #8–11, Supplementary Fig. S4D
[3] = biological target: endogenous voltage-dependent anion channel-1 (VDAC1) (human (endogenous in PC3)) (UniProt P21796)
endogenous voltage-dependent anion channel-1 (VDAC1) (human (endogenous in PC3)), sequence (P21796 whole entry): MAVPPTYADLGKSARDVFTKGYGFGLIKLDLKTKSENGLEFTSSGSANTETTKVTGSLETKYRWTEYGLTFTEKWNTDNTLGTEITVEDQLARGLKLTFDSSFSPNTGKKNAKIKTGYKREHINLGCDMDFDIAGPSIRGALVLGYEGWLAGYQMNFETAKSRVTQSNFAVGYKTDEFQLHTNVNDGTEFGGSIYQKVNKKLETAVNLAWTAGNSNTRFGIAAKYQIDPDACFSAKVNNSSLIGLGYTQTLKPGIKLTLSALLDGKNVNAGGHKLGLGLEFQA

Molecule: MFF-DD mutant peptide #8–11: MFF peptide #8–11 containing the double mutation Arg225Asp/Arg236Asp (DD) ({Biotin-Ahx}-RQIKIWFQNRRMKSADGILSLIQSSTDRAYQQIL)
- HMGB1 release (tumor cells [1]): did not cause HMGB1 release

Molecule: COC(=O)C[C@H](NC(=O)[C@H](C)NC(=O)[C@@H](NC(=O)OCc1ccccc1)C(C)C)C(=O)CF [Z-VAD-fmk] (Cbz-Val-Ala-Asp(OMe)-CH2F)
- reversal of cell death induced by cell-permeable MFF peptide #8–11 (tumor cells [2]): did not significantly reduce tumor cell death

- other [3]: 10 µM
Molecule: {Biotin-Ahx}-RQIKIWFQNRRMKSARGILSLIQSSTRRAYQQIL [cell-permeable MFF peptide #8-11]
